# Laboratory results taken from patent EP2581085A1, “Pharmaceutical composition for nasal administration of metopimazine” (priority 2011, dated 2013).
# Read-outs that look alike come from different tables or passages of the source.
# How the values were obtained:
# [1] = Pharmacokinetic study in rabbit after nasal or IV administration (plasma MPZ and AMPZ by HPLC with fluorescence detection); format: in vivo, lapin
# Method: Le passage par voie nasale de la métopimazine a été caractérisé chez l'animal dans un modèle de référence qu'est le lapin. Les lapins utilisés étaient des femelles de race néozélandaises provenant de chez Charles River (poids 3,5 kg). La formulation testée chez le lapin a été la suivante: • Formule 1 : • Métopimazine : 10mg • NaCl : QSP 300mOsm • Tampon Citrate : QSP pH 5.5 • Eau : QSP 1ml
# La posologie administrée au lapin a été calculée à partir de la dose pédiatrique soit 1 mg / kg / jour en 3 prises. Le poids des lapins étant de 3,5 kg, la dose par prise est d'environ 1 mg. La dose est donc administrée par instillation de 50 µl dans chaque narine d'une solution à 10 mg/ml.
# Avant toute manipulation, le lapin est placé dans des cages de contention. Un cathéter est introduit sur chaque oreille du lapin au niveau de la veine marginale et d'une artère. Le cathéter veineux a permis d'injecter le soluté de remplissage (sérum physiologique) et le cathéter artériel a servi aux différents prélèvements sanguins tout au long de la manipulation. Les prélèvements ont été réalisés à temps réguliers : 0, 5, 10, 20, 30, 60, 120, 240 et 480 minutes. La préparation est administrée aux lapins en position supinale. Les lapins sont être maintenus dans cette position au moins 5 minutes après administration pour assurer le contact entre l'épithélium et la formulation. La solution nasale est administrée par instillation d'un volume de 50µL avec une micropipette dans chaque narine du lapin. Le volume du prélèvement est d'environ 3 mL. Après 2 h, les lapins sont placés dans leur cage avec un libre accès à la nourriture et à l'eau dans l'attente des prélèvements suivants. Le dosage est réalisé par CLHP avec détection par fluorescence en utilisant la méthode décrite par Angelo et al. J of Chrom, 496; 472-477, (1989). L'appareil de dosage est constitué d'une pompe Jasco, d'un injecteur Kontron et d'un détecteur de fluorescence Varian Prostar.
# L'étude pharmacocinétique a été conduite sur le logiciel PK Solutions 2.
# La formule 1 a été comparée à la voie IV. La métopimazine a été administrée dans la veine marginale de l'oreille. Les concentrations plasmatiques de la MPZ et l'AMPZ sont représentées également dans la figure 2.
# Selon le même protocole, une autre formulation a été testée. • Formule 2 : • Métopimazine : 10mg • DMβCD : 21mg • NaCl : QSP 300mOsm • Tampon Citrate : QSP pH 5.5 • Eau : QSP 1ml
# [2] = hepatic first-pass effect, cited from earlier work
# [3] = Local tolerance study in rabbit, nasal administration for 7 days, histology of the anatomical piece; format: in vivo, lapin; design: key: Non renseigné : absent ou négligeable; +: faible intensité; ++: Intensité modérée; +++: Intensité marquée; conditions: 7 days of Formule 1 200µLx3/J
# Method: La tolérance a été étudiée chez le lapin après administration de 2mg de Formule 1 X3/j pendant 7 jours. Chaque lapin était son propre contrôle, puisqu'une narine recevait le Vogalène pendant que la seconde recevait une solution de sérum physiologique. Après l'exposition, les lapins sont sacrifiés afin de récupérer et d'étudier la pièce anatomique.
# [4] = MPZ in plasma after IV administration of métopimazine, lapin, n=2
# [5] = sampling 14h after last administration, one rabbit and one sample (A-D)
# [6] = sampling 70h after last administration, each column = one rabbit and one sample (A-C)
smiles,measurement,setting,value
"CS(=O)(=O)c1ccc2c(c1)N(CCCN1CCC(C(=O)O)CC1)c1ccccc1S2 [AMPZ, acide de métopimazine]",t max,[1]; in vivo,10 min
same,AUC,"[1]; in vivo, iv",5765 ng/mL/min
same,C max,"[1]; in vivo, iv",40 ng/mL
same,T1/2,"[1]; in vivo, iv",105 min
same,t max,"[1]; in vivo, iv",20 min
"CS(=O)(=O)c1ccc2c(c1)N(CCCN1CCC(C(N)=O)CC1)c1ccccc1S2 [MPZ, métopimazine]",t max,"[1]; MPZ in plasma after IV administration of métopimazine (veine marginale de l'oreille), lapin, n=2, read-out: t max (converted)",5 min
same,Cmax,[1]; [4],17.4 ng/mL
same,half-life,[1]; [4],72 min
same,AUC,"[1]; MPZ in plasma after IV administration of métopimazine, lapin, n=2, read-out: AUC (converted)",23.4 ng·h/mL
same,t max,"[1]; MPZ in plasma after nasal administration, 50 µl in each nostril of a 10 mg/ml solution (about 1 mg), lapin, n=2, read-out: t max (converted)",5 min
same,Cmax,"[1]; MPZ in plasma after nasal administration, about 1 mg, lapin, n=2",9.2 ng/mL
same,bioavailability,"[1]; plasma, 1 mg, lapin, nasal route compared with IV, b45 = formulation tested (Formule 1), b50 = Formule 2, read-out: biodisponibilité de la MPZ par voie nasale",~50%
same,biodisponibilité par voie orale,[2]; oral route,"22,3%"
same,biodisponibilité par voie rectale,[2]; rectal route,"19,5%"
same,Hyperplasie des cellules de réserve,[3]; [5],+
same,Inflammation dans le chorion,[3]; [5],+
same,Perte des cellules caliciformes,[3]; [5],+
same,Hyperplasie des cellules de réserve,[3]; [6],+ and ++
same,Inflammation épithéliale,[3]; [6],+ and + avec eosinophiles et lymphocytes
same,Perte des cellules caliciformes,[3]; [6],+++ and + and ++
same,Perte des cils,[3]; [6],+++ and + and ++
